Experimental data as given in US9901111B2, “Taste-improving peptide” (Takasago International Corporation, priority 2011, dated 2018).

Experiment: Sensory evaluation of sourness-masking effect in yoghurt drink by five special panelists
Settings: for Evaluation Result (sourness-masking effect): score 0-3, stored at 10° C. for 10 days
Protocol: The peptide mixture obtained in the above procedure 1 was centrifuged (20,000 G) to obtain an aqueous layer. The aqueous layer was treated with UF membranes of 20 nm, 5 kDa and 1 kDa, respectively, and permeate solutions were collected. Each permeate solution obtained through the UF membranes or the peptide mixture before treatment were added to a commercially available yoghurt drink. After the yoghurt drink was stored at 10° C. for 10 days, five special panelists conducted sensory evaluation regarding a sourness-masking effect. Note that each sample was prepared such that the addition amount is 0.1% calculated in terms of the peptide mixture. A commercially available yoghurt drink without addition was used as control. Evaluation was performed by scoring from 0 to 3 shown in Table 1 at 0.5 point intervals.
(§1) In the same manner as in the above procedure 2, the obtained 13 fractions were added to a commercially available yoghurt drink, respectively. After the yoghurt drink was stored at 10° C. for 10 days, five special panelists conducted sensory evaluation regarding a sourness-masking effect. Each sample was prepared such that the addition amount is 0.1% calculated in terms of the peptide mixture. The evaluation method is the same as in the above procedure 2.
as §1, with “four” for “13”
The five kinds of peptide identified in Example 1 and phenylalanine were added to a commercially available yoghurt drink, respectively. After the yoghurt drink was stored at 10° C. for 10 days, five special panelists conducted sensory evaluation regarding a sourness-masking effect. The peptide mixture obtained in Example 1-1 was added in an amount of 0.1%, the peptides and phenylalanine obtained in Example 1-5 were added in an amount of 20 ppb and the mixture of VP+LLL was added in an amount of 10 ppb each. The evaluation method was the same as in Example 1-2.
VP and LLL were mixed in the mixture ratio within the range from 1:9 to 9:1 and each mixture was added to a commercially available yoghurt drink in an amount of 0.01 ppm. After the yoghurt drink was stored at 10° C. for 10 days, five special panelists conducted sensory evaluation regarding a sourness-masking effect. The evaluation method is the same as in the Example 1-2.
VP, LLL and the mixture of equal parts of VP and LLL were added to a commercially available yoghurt drink in an amount of 0.001 ppm, 0.01 ppm and 0.1 ppm, respectively. After the yoghurt drink was stored at 10° C. for 10 days, five special panelists conducted sensory evaluation regarding a sourness-masking effect. The evaluation method is the same as in the Example 1-2.

[1] = Example 4, addition concentration 0.001 ppm
[2] = Example 4, addition concentration 0.01 ppm
[3] = Example 4, addition concentration 0.1 ppm

Compound	Evaluation Result (sourness-masking effect) (Example 2, added at 20 ppb)	sourness-masking effect, in words (Example 2, added at 20 ppb)	Evaluation Result (sourness-masking effect) (Example 3, added at 0.01 ppm)	Evaluation Result (sourness-masking effect) [1]	Evaluation Result (sourness-masking effect) [2]	Evaluation Result (sourness-masking effect) [3]
N[C@@H](Cc1ccccc1)C(=O)O [F, phenylalanine, reference compound]	0.1	–	–	–	–	–
Leu-Leu-Leu [LLL]	1.4	remarkable sourness-masking effect	1.3	0.3	1.4	1.5
Leu-Leu-Leu-Leu (LLLL; printed: Leu-Leu-Leu-Leu) [reference compound]	0.3	–	–	–	–	–
Leu-Pro-Pro [LPP, reference compound]	0.3	–	–	–	–	–
Val-Pro [VP]	1.3	remarkable sourness-masking effect	1.4	0.2	1.5	1.5
Val-Pro-Pro [VPP, reference compound]	0.2	–	–	–	–	–
